The values below come from paper PMC10589313 (Nature Communications, 2023).

The target in one experiment is T1, human H4R F344I mutant (Homo sapiens, UniProt Q9H3N8, F344I).
T1 construct: a mutant H4R (human, full-length, and untagged); expressed in transfected cells; host or cells: HEK293A
The experiment is described as follows: TGFα shedding assay, H4R F344I mutant. The experiment is classed as cell-based. As for the experimental part: (§1) The mutants were prepared using the primers listed in Supplementary Table 2. […] The chimeric Gαq/i1 subunit comprises the Gαq backbone and Gαi1-derived six-amino acid C-terminus and couples with Gi-coupled H4R but induces a Gq-dependent TGFα shedding response. After culturing for 1 day and incubating at 37 °C in a 5% CO2 incubator, the transfected cells were harvested by trypsinization, neutralized with Dulbecco’s modified Eagle’s medium containing 10% fetal calf serum (FCS) and penicillin–streptomycin, washed once with Hank’s balanced salt solution (HBSS) containing 5 mM of HEPES (pH 7.4), and resuspended in 6 mL of the HEPES-containing HBSS. The cell suspension was seeded into a 96-well plate at a volume of […] per well (typically, 48 wells per transfected cells) and incubated for 30 min in the CO2 incubator. Test compounds (10×, diluted in 0.01% BSA and 5 mM of HEPES-containing HBSS, […] volume) were added to duplicate wells and incubated for 1 h. After centrifugation, the conditioned medium ([…]) was transferred to an empty 96-well plate. AP reaction solution [10 mM of p-nitrophenylphosphate (p-NPP), 120 mM of Tris–HCl (pH 9.5), 40 mM of NaCl, and 10 mM of MgCl2] was dispensed into the cell culture plates and plates containing conditioned media ([…]). Absorbance was measured at 405 nm before and after a 1-h incubation period at 25 °C using a microplate reader (iMark™ Microplate Absorbance Reader; BioRad). Ligand-induced AP-TGFα release was calculated as previously described. The vehicle-treated AP-TGFα release signal was set as a baseline unless otherwise specified. AP-TGFα release signals were fitted with a four-parameter sigmoidal concentration-response curve, from which EC50 and Emax values were obtained, using GraphPad Prism 9 software (GraphPad Prism). Negative values of logarithmically transformed EC50 values (pEC50) were used to calculate the mean and standard error of independent experiments.
(§2) All functional study data were analyzed using Prism 9 (GraphPad) and are presented as mean ± standard error of the mean (SEM) of three independent experiments. Statistical analyses were performed using Prism 9 (GraphPad) with one-way analysis of variance followed by Dunnett’s post-hoc test. Values with p < 0.05 are considered statistically significant.

The target of a further experiment is T2, human H4R Q347A mutant (Homo sapiens, UniProt Q9H3N8, Q347A).
T2 construct: a mutant H4R (human, full-length, and untagged); expressed in transfected cells; host or cells: HEK293A
Put plainly: TGFα shedding assay, H4R Q347A mutant. It counts as cell-based. As for the experimental part: as §1, §2

The next experiment concerns H2R. Conditions: in words; cited from earlier work.
The target in the next experiment is T3, human H4R Y319A mutant (Homo sapiens, UniProt Q9H3N8, Y319A).
T3 construct: a mutant H4R (human, full-length, and untagged); expressed in transfected cells; host or cells: HEK293A
The experiment is described as follows: TGFα shedding assay, H4R Y319A mutant. It counts as cell-based. As to the method:
as §1, §2

Where [1] appears, read: Imetit (M) -5 (log concentration), raw replicate values.

Where “and” joins values, the source holds several entries; their conditions need not be identical. Equal entries are not always repeated. Some results are limits rather than exact numbers.

The term EC50 denotes the concentration needed to bring the measured effect to its halfway point. Usually Emax stands for the size of the effect at its maximum, as opposed to the concentration needed.

T1 sequence (Q9H3N8 whole entry F344I): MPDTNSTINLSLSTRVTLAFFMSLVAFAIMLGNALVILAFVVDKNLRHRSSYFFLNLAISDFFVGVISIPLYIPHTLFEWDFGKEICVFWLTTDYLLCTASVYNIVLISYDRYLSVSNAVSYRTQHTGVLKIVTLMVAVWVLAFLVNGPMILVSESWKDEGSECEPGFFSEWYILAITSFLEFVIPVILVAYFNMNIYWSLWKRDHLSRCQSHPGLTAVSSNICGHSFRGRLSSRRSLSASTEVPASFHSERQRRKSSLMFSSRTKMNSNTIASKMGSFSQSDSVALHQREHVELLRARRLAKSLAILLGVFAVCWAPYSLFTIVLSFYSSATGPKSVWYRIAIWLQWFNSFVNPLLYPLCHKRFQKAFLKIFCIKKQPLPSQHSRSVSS
T3 sequence (Q9H3N8 whole entry Y319A): as the sequence (Q9H3N8 whole entry F344I) above, with Y319A, I344F counted along it
T2 sequence (Q9H3N8 whole entry Q347A): as the sequence (Q9H3N8 whole entry F344I) above, with I344F, Q347A counted along it

As to `N=C(N)SCCc1cnc[nH]1` [Imetit, imetit], the EC50 at human H4R F344I mutant was > 10000 nM; on human H4R Q347A mutant (EC50 (nM), Q347A mutant), 12.7 nM; on human H4R Q347A mutant (pEC50 mean ± SEM, Q347A mutant), 12.3 nM; on human H4R Y319A mutant (EC50 (nM), Y319A mutant), 159 nM; on human H4R Y319A mutant (pEC50 mean ± SEM, Y319A mutant) it was 141 nM. Moreover, at human H4R F344I mutant (F344I (H1R mimic) mutant vs wild type), the “signaling activity at mutant, in words” value is “loss of imetit activity”. Further, the “Shedding assay response, F344I” value at human H4R F344I mutant (setting [1]) was 1.112 and 4.483 and 7.185 and 5.21 and 4.635 and 3.564 and 4.726 and 4.072 and 2.0567. Also, the “Shedding assay response, Q347A” value on human H4R Q347A mutant (setting [1]) was 17.2563 and 18.9409 and 18.4053 and 16.608 and 19.8188 and 22.6245 and 22.4962 and 23.3465 and 23.6643. In addition, the fold of change turned out to be 0.4 fold at human H4R Q347A mutant (Q347A mutant, EC50 relative to WT) and 5.3 fold on human H4R Y319A mutant (Y319A mutant, EC50 relative to WT). In addition, the Emax came to 19.3 ± 1.1% on human H4R Q347A mutant (read-out: Emax (%) mean ± SEM) and 15.8 ± 1.58% at human H4R Y319A mutant (read-out: Emax (%) mean ± SEM). Moreover, the “binding to H2R” value in the experiment with H2R is on record as “does not bind”. Besides, the “Shedding assay response, Y319A” value on human H4R Y319A mutant (setting [1]) is 15.1866 and 16.9873 and 18.1596 and 17.4201 and 15.3203 and 22.2497 and 14.1035 and 13.1515 and 10.7745.
